Data published in ChEMBL document CHEMBL1125162, “High-potency dipeptide sweeteners. 2. L-aspartylfuryl-, thienyl-, and imidazolylglycine esters” (J Med Chem, 1990).

Experiment: Sweetness potency compared to 5-10% sucrose
Assay type: functional

| SMILES | Potency |
| --- | --- |
| CC1(C)C2CC[C@](C)(C2)[C@@H]1OC(=O)C(NC(=O)[C@@H](N)CC(=O)O)c1ccccc1 (stereo in doubt; 5) | 3700 |
| CC12CCC(C1)C(C)(C)C2OC(=O)C(NC(=O)[C@@H](N)CC(=O)O)C1CCCO1 (some centres not stated) | 0 |
| CC12CCC(C1)C(C)(C)C2OC(=O)C(NC(=O)[C@@H](N)CC(=O)O)c1cccs1 (some centres not stated) | 2000 |
| CC1(C)C2CC[C@](C)(C2)[C@@H]1OC(=O)C(NC(=O)[C@@H](N)CC(=O)O)c1ccccc1 (stereo in doubt; 4) | 1200 |
| CC1CCC(C)C1OC(=O)C(NC(=O)[C@@H](N)CC(=O)O)c1ccco1 (some centres not stated) | 400 |
| CC12CCC(C1)C(C)(C)C2OC(=O)C(NC(=O)[C@@H](N)CC(=O)O)c1c[nH]cn1 (some centres not stated) | 350 |
| COC(=O)C(NC(=O)[C@@H](N)CC(=O)O)C(=O)O[C@@H]1C(C)(C)C2CC[C@]1(C)C2 (stereo in doubt; 2) | 30000 |
| CC12CCC(C1)C(C)(C)C2OC(=O)C(Cc1cccs1)NC(=O)[C@@H](N)CC(=O)O (some centres not stated) | 0 |
| CC12CCC(C1)C(C)(C)C2OC(=O)C(NC(=O)[C@@H](N)CC(=O)O)c1ccsc1 (some centres not stated) | 2300 |
| COC(=O)C(NC(=O)[C@@H](N)CC(=O)O)C(=O)O[C@@H]1C(C)(C)C2CC[C@]1(C)C2 (stereo in doubt; 3) | 50000 |
| CC12CCC(C1)C(C)(C)[C@H]2OC(=O)[C@H](NC(=O)[C@@H](N)CC(=O)O)c1ccco1 (some centres not stated) | 16500 |
| CC12CCC(C1)C(C)(C)[C@@H]2OC(=O)C(NC(=O)[C@@H](N)CC(=O)O)c1ccco1 (some centres not stated) | 630 |
